Measured values taken from US20260183277A1, “ANTIVIRAL PHARMACEUTICAL COMPOSITION COMPRISING ERRy INHIBITOR AS ACTIVE INGREDIENT” (priority 2024, published 2026).

Tested on: SARS-CoV-2 KCDC03
Type: cell-based

How did the “genome replication, progeny production, and protein synthesis of SARS-CoV-2” value turn out when `CC(C)N1CCN(c2ccc(/C(=C(/CCCO)c3ccccc3)c3ccc(O)cc3)cc2)CC1` [DN200434] was run?
Its value is “effectively suppressed”.
